Paper PMC4259467, “Molecular Cloning, Characterization and Positively Selected Sites of the Glutathione S-Transferase Family from Locusta migratoria” (PLoS ONE, 2014)

Experiments:
LmGSTE4 = molecular target: T1, LmGSTE4 (Locusta migratoria, UniProt V9Q318); assay: spectrophotometric GST assay, steady state; assay type: biochemical; conditions: co-substrate GSH; pH and temperature not given; read-out: K m ^CDNB
T1 construct: gene GSTe4; full-length ORF in pET28a, E. coli BL21(DE3), His-tag Ni-NTA purified
T1 sequence (V9Q318 1-221): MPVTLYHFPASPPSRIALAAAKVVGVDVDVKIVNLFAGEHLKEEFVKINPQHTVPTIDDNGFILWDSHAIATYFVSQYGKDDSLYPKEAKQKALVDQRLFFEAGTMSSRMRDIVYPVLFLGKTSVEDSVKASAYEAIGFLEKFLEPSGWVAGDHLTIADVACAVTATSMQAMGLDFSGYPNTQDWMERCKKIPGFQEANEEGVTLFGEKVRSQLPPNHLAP
Description: spectrophotometric GST assay, steady state on LmGSTE4

LmGSTS10 = molecular target: T2, LmGSTS10 (Locusta migratoria, UniProt V9Q3X5); assay: spectrophotometric GST assay, steady state; assay type: biochemical; conditions: co-substrate GSH; pH and temperature not given; read-out: K m ^CDNB
T2 construct: gene GSTs10; full-length ORF in pET28a, E. coli BL21(DE3), His-tag Ni-NTA purified
T2 sequence (V9Q3X5 1-204): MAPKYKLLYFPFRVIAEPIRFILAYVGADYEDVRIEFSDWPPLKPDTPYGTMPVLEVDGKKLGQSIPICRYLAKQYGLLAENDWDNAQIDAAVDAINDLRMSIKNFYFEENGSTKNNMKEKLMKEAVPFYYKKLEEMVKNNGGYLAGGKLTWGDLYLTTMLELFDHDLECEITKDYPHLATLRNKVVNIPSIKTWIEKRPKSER
Description: spectrophotometric GST assay, steady state on LmGSTS10

With `O=[N+]([O-])c1ccc(Cl)c([N+](=O)[O-])c1` [CDNB] the Km (LmGSTE4) was 102 ± 8 µM and the Km (LmGSTS10) was 311 ± 18 µM.
